Drawing on patent US20240166681A1, “3'3' CYCLIC DINUCLEOTIDES CONTAINING ISONUCLEOTIDIC UNITS” (INSTITUTE OF ORGANIC CHEMISTRY AND BIOCHEMISTRY AS CR, V. …, priority 2021, published 2024), this text covers EC50 for two molecules.

The term EC50 denotes the concentration needed to bring the measured effect to its halfway point.

For the test, the target named is WT STING (Homo sapiens, UniProt Q86WV6, H232R). Description: 293T WT STING standard reporter assay. Type of test: cell-based. More on the design: host or cells: 293T (ATCC CRL-3216), stably transfected. To be noted: 293T wtSTING-FL cells, no digitonin, 7 h incubation, luciferase reporter. The procedure:
After 5 minutes incubation at room temperature (RT), 250 μL of the mixture was added dropwise to the cells in one well. Cells were incubated 36 hours at 37° C. with 5% CO2, and then detached with 0.05% Trypsin and 0.22 g/L EDTA (both cat. #L0941, Biowest, Riverside, USA).
Transfected cells were seeded onto poly-D-lysine coated six well plates at density 50,000 cells per 1 cm^2 in DMEM medium with high glucose containing 10% heat inactivated FBS, 30 μg/mL blasticidin (cat. #ant-b1-05, InvivoGen, San Diego, USA), 0.06 mg/ml Penicillin G and 0.1 mg/ml Streptomycin Sulfate (both cat. #. L0018, Biowest, Riverside, USA). The medium was replenished every 3-4 days until visible colonies of cells resistant to blasticidin were formed.
Blasticidin resistant cells stably expressing WT STING were further transfected with […] plasmid following the same procedure as described above. […] Homogeneous culture of stably double transfected cells was prepared by limiting dilution of cells in 96 well plates and wells with cells were selected that originated from a single cell.
The medium was removed next day and three-fold serial dilutions of compounds in 100 μl medium were added to the cells. The plates with cells were incubated for 7 hours at 37° C. with 5% CO2. After 50 μl of the medium was removed, 30 μl of ONE-Glo™ Luciferase Assay System reagent (cat. #E6120, Promega, Madison, USA) was added to each well and luminescence was read on Synergy H1 (Biotek, Winooski, USA). […] (cat. #tlrl-nacga23), and 2′2′-cGAMP (cat. #tlrl-nacga22) were purchased from Invivogen (San Diego, USA).
A general note: In a reporter assay the amount or activity of a reporter protein is the signal.

WT STING, sequence (Q86WV6 whole entry H232R): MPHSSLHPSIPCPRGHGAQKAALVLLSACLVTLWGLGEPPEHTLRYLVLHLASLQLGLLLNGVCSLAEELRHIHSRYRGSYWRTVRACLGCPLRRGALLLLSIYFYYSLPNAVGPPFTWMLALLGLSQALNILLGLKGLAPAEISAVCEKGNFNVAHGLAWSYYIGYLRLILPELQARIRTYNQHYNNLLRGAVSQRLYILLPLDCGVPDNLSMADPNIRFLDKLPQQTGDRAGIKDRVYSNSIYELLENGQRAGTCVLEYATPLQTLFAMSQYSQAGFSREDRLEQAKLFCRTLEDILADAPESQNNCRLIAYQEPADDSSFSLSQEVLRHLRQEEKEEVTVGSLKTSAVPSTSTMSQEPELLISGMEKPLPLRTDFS

As for `Nc1ncnc2c1ncn2[C@@H]1CO[C@@H]2COP(=O)(S)O[C@H]3[C@@H](F)[C@H](n4cnc5c(N)ncnc54)O[C@@H]3COP(=O)(S)O[C@@H]12` (stereo partly drawn) [Compound 54, (1S,6R,8R,9R,10R,15R,18R)-8,18-bis(6-amino-9H-purin-9-yl)-9-fluoro-3,12-disulfanyl-2,4,7,11,13,16-hexaoxa-3λ^5,12λ^5-diphosphatricyclo[13.3.0.0^6,10]octadecane-3,12-dione], the EC50 came to 156 nM.
With `Nc1ncnc2c1ncn2[C@@H]1CO[C@@H]2COP(=O)(S)O[C@H]3[C@@H](F)[C@H](n4cnc5c(N)ncnc54)O[C@@H]3COP(=O)(S)O[C@@H]12` (stereo partly drawn) [Compound 55, (1S,6R,8R,9R,10R,15R,18R)-8,18-bis(6-amino-9H-purin-9-yl)-9-fluoro-3,12-disulfanyl-2,4,7,11,13,16-hexaoxa-3λ^5,12λ^5-diphosphatricyclo[13.3.0.0^6,10]octadecane-3,12-dione] the figure was 340 nM.
